Measured values: patent US20240287107A1, “PRODRUGS OF DIMETHYLTRYPTAMINE AND DERIVATIVES THEREOF” (priority 2022, published 2024)

Test: Stability in mouse plasma
Format: in vitro ADME
Description: Chemical and plasma stability of prodrug Compound 1 was evaluated and the results enumerated in Table 7 and Table 8, respectively. PK studies of prodrug Compound 1 and metabolite (VLS-02-23-10) in mice were also conducted and both plasma exposure and brain exposure were analyzed as shown in FIGS. 1A-1C and FIGS. 2A-2B, respectively.

## C[N+](C)(CCc1c[nH]c2ccccc12)COP(=O)([O-])O [Compound 1, ((2-(1H-indol-3-yl)ethyl)dimethyl-λ^4-azaneyl)methyl hydrogen phosphate]
  T½: 9.4723 h

## CC(C)[N+](C)(CCOC(=O)C1c2ccccc2Oc2ccccc21)C(C)C [Propantheline]
  T½: 0.5682 h
